Assays:
[1] = target: T1, Amine oxidase [flavin-containing] B (Homo sapiens, UniProt P27338); experiment: Binding affinity to MAOB (unknown origin) using 7-(3-amino-propoxy)-coumarin as substrate after 3 hr by spectrofluorometric analysis
T1 sequence (P27338 whole entry): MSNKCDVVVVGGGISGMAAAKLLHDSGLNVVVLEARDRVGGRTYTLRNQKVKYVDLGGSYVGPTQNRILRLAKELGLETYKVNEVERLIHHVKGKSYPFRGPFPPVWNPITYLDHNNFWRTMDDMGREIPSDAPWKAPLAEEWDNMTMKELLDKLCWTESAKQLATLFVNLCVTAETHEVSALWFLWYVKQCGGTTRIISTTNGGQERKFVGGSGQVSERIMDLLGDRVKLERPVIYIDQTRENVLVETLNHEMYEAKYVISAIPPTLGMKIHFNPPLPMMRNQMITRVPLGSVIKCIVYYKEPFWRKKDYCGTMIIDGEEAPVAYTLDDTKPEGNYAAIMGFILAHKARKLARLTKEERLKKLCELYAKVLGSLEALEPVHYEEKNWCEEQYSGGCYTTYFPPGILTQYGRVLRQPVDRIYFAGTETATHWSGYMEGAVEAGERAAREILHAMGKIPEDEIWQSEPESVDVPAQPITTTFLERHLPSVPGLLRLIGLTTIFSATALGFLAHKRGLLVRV

[2] = target: T2, Amine oxidase [flavin-containing] A (Homo sapiens, UniProt P21397); experiment: Binding affinity to MAOA (unknown origin) using 7-(3-amino-propoxy)-coumarin as substrate after 3 hr by spectrofluorometric analysis
T2 sequence (P21397 whole entry): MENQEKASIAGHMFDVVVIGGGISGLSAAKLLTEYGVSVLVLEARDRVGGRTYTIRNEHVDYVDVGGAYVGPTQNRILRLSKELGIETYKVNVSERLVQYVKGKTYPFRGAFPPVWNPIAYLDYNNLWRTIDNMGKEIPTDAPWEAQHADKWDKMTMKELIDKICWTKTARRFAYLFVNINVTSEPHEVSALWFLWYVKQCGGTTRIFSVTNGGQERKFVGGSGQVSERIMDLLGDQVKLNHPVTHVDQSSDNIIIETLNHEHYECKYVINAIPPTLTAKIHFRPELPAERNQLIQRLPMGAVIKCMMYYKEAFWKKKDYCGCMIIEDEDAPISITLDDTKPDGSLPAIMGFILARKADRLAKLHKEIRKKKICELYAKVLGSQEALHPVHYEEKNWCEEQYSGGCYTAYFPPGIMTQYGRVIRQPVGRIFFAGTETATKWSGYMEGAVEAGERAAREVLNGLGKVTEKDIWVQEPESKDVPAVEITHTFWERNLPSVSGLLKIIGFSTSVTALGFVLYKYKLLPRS

| IC50 [1] [µM] | IC50 [2] [µM] | Structure (SMILES) |
| --- | --- | --- |
| 54.3 | 5.7 | CC(C)(C)OC(=O)NCCCCCCNCC(N)=O |
| 79.5 | 8.6 | NCCCCCCNCC(N)=O |

— ChEMBL document CHEMBL3044909, “Design, synthesis, and evaluation of an activity-based probe for cellular imaging of monoamine oxidases” (Med Chem Res, 2012)
